Data reported in US20030007998A1, “Unsaturated lipid-enriched feedstock for ruminants” (priority 2001, published 2003).

Tests used:
Holstein cows [1] = test: Dairy cattle feeding trial, dietary monensin in linseed oil diets; assay type: in vivo
Method: (§1) Eight Holstein cows are selected and equipped with rumen and duodenal cannulae. All cows are housed in individual tie stalls and are commencing the trial at 45 days in lactation.
(§2) The eight cows are employed in two four-by-four Latin Square designs. Each square has four cows with four treatments imposed. The four treatments are 0, 10, 40 and 70 mg/kg DM of dietary monensin. Each square has a different source of dietary fatty acids. In the first square, dietary fat is supplied by linseed oil, which has a high proportion of fatty acid linolenate. The second square has the dietary fat supplied by MEGALAC, which is a calcium salt of palm oil fatty acids having a high proportion of fatty acid oleate.
(§3) Cows are fed identical diets in both squares except for source of fatty acids, and are formulated for high production. Nutrient composition is formulated for all diets at 17% crude protein with 65% as rumen undegradable protein, 26% Neutral Detergent Fiber, 1.7 Mcal/kg net energy. All diets contain 4% added fat on a dry matter basis from MEGALAC or linseed oil. A daily dry matter intake of 25 kg/cow is calculated to deliver approximately 1 kg of linseed oil or MEGALAC per cow per day. Remaining dietary ingredients are low in fat, and include alfalfa haylage, corn silage, corn, barley, soybean meal, blood meal, Smartamine-M (rumen bypass methionine), sodium bicarbonate and vitamin-mineral premix. All diets are offered as Total Mixed Rations twice daily in quantities to assure at least 10% refusal per day of the amount offered.
(§4) Cows are fed their assigned diets for two weeks, with week one as an adaptation and week two as the experimental feeding period. Sampling is on the last 3 days of this second week. All cows are then moved onto a different diet in such a manner that by the end of the trial all cows have received all diets within each Latin Square.
(§5) During the second week of each period daily, dry matter intake and milk production are recorded. Total mixed rations are sampled daily and composited weekly. These are analyzed for crude protein, NDF and total fat. During the last 3 days of the second week individual proportional milk samples are taken and separated into two subsamples. One subsample is used to assay for total fat content and true protein, and the second is frozen for subsequent analysis of fatty acid profile in the milk.
(§6) During the last 3 days of the second week, rate of passage from the rumen is estimated using dye marker techniques. The liquid and solids markers are placed into the rumen daily beginning on day 7 of the adaptation period, with duodonal samples taken on the last 3 days of the experimental period. Duodenal samples are stored frozen for later analysis of total fat, fatty acid profile and marker. Concurrent rumen samples are taken. Liquid turnover rate is estimated from the dilution of dye in the liquid portion of rumen samples. Rumen contents are assayed for total fat, fatty acid profile and marker. Each Latin square is analyzed separately.

Holstein cows [2] = test: Dairy cattle feeding trial, dietary monensin in MEGALAC diet; assay type: in vivo
Method: as §1, §2, §3, §4, §5, §6

Hereford steers [3] = test: Beef cattle feeding trial, dietary monensin in linseed oil diet; assay type: in vivo
Method: (§7) Eight Hereford steers are selected and equipped with rumen and duodenal cannulae. All steers are housed in individual tie stalls. The duration of the trial is the last 90 days of the finishing period.
(§8) The eight steers are used in two four-by-four Latin Square designs. Each square has four steers with four treatments imposed. The four treatments are 0, 10, 40 and 70 mg of dietary monensin. Each square has a different source of dietary fatty acids. In the first square, dietary fat is supplied by linseed oil, which has a high proportion of fatty acid linolenate. The second square has the dietary fat supplied by MEGALAC, which is a calcium salt of palm oil fatty acids having a high proportion of fatty acid oleate.
(§9) Steers are fed identical diets in both squares except for source of fatty acids, and the diets are formulated for high rate of body weight gain (1 kg/day). All diets are calculated to deliver 0.75 kg/steer/day of added dietary linseed oil or MEGALAC. Remaining dietary ingredients are low in fat, and include corn silage, corn, barley, soybean meal, bloodmeal, Smartamine-M (rumen bypass methionine), sodium bicarbonate and vitamin-mineral premix. All diets are offered as Total Mixed Rations twice daily in quantities to assure at least 10% refusal per day of the amount offered.
(§10) Steers are fed their assigned diets for two weeks, with week one as an adaptation and week two as the experimental feeding period. Sampling is on the last 3 days of this second week. All steers are then moved onto a different diet in such a manner that by the end of the trial all steers have received all diets within each Latin Square.
(§11) During the second week of each period daily dry matter intakes are recorded. Total mixed rations are sampled daily and composited weekly. These are analyzed for crude protein, NDF and total fat. During the last 3 days of the second week individual body weights are recorded.
as §6, with “week” for “week,”, “duodenal” for “duodonal”

Hereford steers [4] = test: Beef cattle feeding trial, dietary monensin in MEGALAC diet; assay type: in vivo
Method: as §7, §8, §9, §10, §11
as §6, with “week” for “week,”, “duodenal” for “duodonal”

rumen fluid = conditions: in vitro, J. Dairy Sci., 78, 2797 (1995); cited from earlier work
[5] = 40 mg monensin, P<0.05, linseed oil diet
[6] = 70 mg monensin, P<0.05, linseed oil diet
[7] = 40 mg monensin, P<0.05, MEGALAC diet
[8] = 70 mg monensin, P<0.05, MEGALAC diet
[9] = 10 and 40 mg monensin, P<0.05, steers

For `CC[C@@]1([C@@H]2O[C@@H]([C@H]3O[C@@](O)(CO)[C@H](C)C[C@@H]3C)C[C@@H]2C)CC[C@H]([C@]2(C)CC[C@]3(C[C@H](O)[C@@H](C)[C@@H]([C@@H](C)[C@@H](OC)[C@H](C)C(=O)O)O3)O2)O1` [monensin], the DMI (Holstein cows [1]; 0 to 70 mg monensin addition, linseed oil diet, dairy cows) was “no effect”, the “Milk linolenate increase vs. 0 mg supplementation” value (Holstein cows [1]; 10 mg monensin, P<0.05, linseed oil diet) was 25% and the “Rumen rate of passage” value (Holstein cows [1]; 10 mg monensin, P<0.1, linseed oil diet) was “tends to increase”. For the same molecule, the Milk production improvement (Holstein cows [1]; 10 mg monensin, tends (P<0.1), linseed oil diet) was 3 lbs. per day, the “Milk linolenate increase vs. 0 mg supplementation” value (Holstein cows [1]; [5]) was 28% and the Milk production improvement (Holstein cows [1]; [5]) was 3.5 lb/day. For the same molecule, the Milk production (Holstein cows [1]; 70 mg monensin vs 40 mg, linseed oil diet) was “no further improvement”, the “Milk fat percentage reduction” value (Holstein cows [1]; [6]) was 0.3 percentage points and the “Milk linolenate increase vs. 0 mg supplementation” value (Holstein cows [1]; [6]) was 37%. The “Rumen liquid turnover rate increase” value (Holstein cows [1]; 70 mg monensin, P<0.1, linseed oil diet) was 5%, the Bypass linolenic acid (Holstein cows [1]; 70 mg monensin, linseed oil diet) was “about 30%” and the “Increase of linolenic acid in duodenal contents” value (Holstein cows [1]; 10 and 40 mg monensin, P<0.05, linseed oil diet) was 20 percentage points. The “Estimated rumen bypass rate for linolenic acid” value (Holstein cows [1]; 10 and 40 mg monensin, linseed oil diet (0 mg: 8%)) was 28%, the “Rumen rate of passage increase” value (Holstein cows [1]; 40 and 70 mg monensin, linseed oil diet) was 6% and the “Rumen liquid turnover rate” value (Holstein cows [1]; between 0, 10 and 40 mg monensin, linseed oil diet) was “not different”. The Milk protein percentages (Holstein cows [1]; diets with different concentrations of monensin, linseed oil diet) was “not different”, the Milk fat percentage (Holstein cows [1]; lower inclusion rates of monensin, linseed oil diet) was “only a tendency for a reduction” and the DMI (Holstein cows [2]; 0 to 70 mg monensin addition, MEGALAC diet, dairy cows) was “no effect”. For the same molecule, the “Milk oleate increase vs. 0 mg supplementation” value (Holstein cows [2]; 10 mg monensin, P<0.05, MEGALAC diet) was 22%, the “Rumen rate of passage” value (Holstein cows [2]; 10 mg monensin, P<0.1, MEGALAC diet) was “tends to increase” and the Milk production improvement (Holstein cows [2]; 10 mg monensin, tends (P<0.1), MEGALAC diet) was 2.8 lbs. per day. The “Milk oleate increase vs. 0 mg supplementation” value (Holstein cows [2]; [7]) was 31%, the Milk production improvement (Holstein cows [2]; [7]) was 3.9 lb/day and the Milk production (Holstein cows [2]; 70 mg monensin vs 40 mg, MEGALAC diet) was “no further improvement”. The Bypass linolenic acid (Holstein cows [2]; 70 mg monensin, MEGALAC diet) was “about 33%”, the “Milk fat percentage reduction” value (Holstein cows [2]; [8]) was 0.25 percentage points and the “Milk oleate increase vs. 0 mg supplementation” value (Holstein cows [2]; [8]) was 39%. The “Rumen liquid turnover rate increase” value (Holstein cows [2]; 70 mg monensin, P<0.1, MEGALAC diet) was 6%, the “Estimated rumen bypass rate for oleic acid” value (Holstein cows [2]; 10 and 40 mg monensin, MEGALAC diet (0 mg: 56%)) was 74% and the “Increase of oleic acid in duodenal contents” value (Holstein cows [2]; 10 and 40 mg monensin, P<0.05, MEGALAC diet) was 18 percentage points. For the same molecule, the “Rumen rate of passage increase” value (Holstein cows [2]; 40 and 70 mg monensin, MEGALAC diet) was 6.4%, the “Rumen liquid turnover rate” value (Holstein cows [2]; between 0, 10 and 40 mg monensin, MEGALAC diet) was “not different” and the Milk protein percentages (Holstein cows [2]; diets with different concentrations of monensin, MEGALAC diet) was “not different”. The Milk fat percentage (Holstein cows [2]; lower inclusion rates of monensin, MEGALAC diet) was “only a tendency for a reduction”, the “Rumen rate of passage” value (Hereford steers [3]; 10 mg monensin, P<0.1, steers) was “tends to increase” and the DMI (Hereford steers [3]; 10 mg monensin, steers) was “no significant effect”. For the same molecule, the “Rumen liquid turnover rate increase” value (Hereford steers [3]; 70 mg monensin, P<0.1, steers) was 5%, the Bypass linolenic acid (Hereford steers [3]; 70 mg monensin, steers) was “about 29%” and the “Increase of linolenic acid in duodenal contents” value (Hereford steers [3]; [9]) was 24 percentage points. The “Rumen bypass rate for linolenic acid” value (Hereford steers [3]; 10 and 40 mg monensin, steers (0 mg: about 10%)) was 34%, the DMI reduction (Hereford steers [3]; 40 and 70 mg monensin diets, steers) was 5% and the “Rumen rate of passage increase” value (Hereford steers [3]; 40 and 70 mg monensin, steers) was 6%. The “Rumen liquid turnover rate” value (Hereford steers [3]; between 0, 40 and 70 mg monensin, steers) was “not different”, the DMI (Hereford steers [4]; 10 mg monensin addition, steers) was “no effect” and the “Rumen rate of passage” value (Hereford steers [4]; 10 mg monensin, P<0.1, steers) was “tends to increase”. For the same molecule, the “Rumen liquid turnover rate increase” value (Hereford steers [4]; 70 mg monensin, P<0.1, steers) was 4%, the Bypass linolenic acid (Hereford steers [4]; 70 mg monensin, steers) was “about 39%” and the “Increase of oleic acid in duodenal contents” value (Hereford steers [4]; [9]) was 22 percentage points. The “Estimated rumen bypass rate for oleic acid” value (Hereford steers [4]; 10 and 40 mg monensin, steers (0 mg: 66%)) was 88%, the “DMI reduction compared to controls” value (Hereford steers [4]; 40 and 70 mg monensin, steers) was 8% and the “Rumen rate of passage increase” value (Hereford steers [4]; 40 and 70 mg monensin, steers) was 5.4%. For the same molecule, the “Rumen liquid turnover rate” value (Hereford steers [4]; between 0, 10 and 40 mg monensin, steers) was “not different”.
For `CC1(C)S[C@@H]2[C@H](NC(=O)[C@H](N)c3ccc(O)cc3)C(=O)N2[C@H]1C(=O)O` [amoxicillin], the “Antimicrobial inhibition of lipolysis and lipid biohydrogenation of soybean oil” value (rumen fluid) is listed as “most potent inhibitors”.
